The structures appear in SMILES notation. pIC50, pKd: −log10 of the molar value. Where two headings read alike, the source gives them in different places.

The target of test [1] is T1, human progesterone receptor (Homo sapiens, UniProt P06401).
T1 sequence (P06401 1-933): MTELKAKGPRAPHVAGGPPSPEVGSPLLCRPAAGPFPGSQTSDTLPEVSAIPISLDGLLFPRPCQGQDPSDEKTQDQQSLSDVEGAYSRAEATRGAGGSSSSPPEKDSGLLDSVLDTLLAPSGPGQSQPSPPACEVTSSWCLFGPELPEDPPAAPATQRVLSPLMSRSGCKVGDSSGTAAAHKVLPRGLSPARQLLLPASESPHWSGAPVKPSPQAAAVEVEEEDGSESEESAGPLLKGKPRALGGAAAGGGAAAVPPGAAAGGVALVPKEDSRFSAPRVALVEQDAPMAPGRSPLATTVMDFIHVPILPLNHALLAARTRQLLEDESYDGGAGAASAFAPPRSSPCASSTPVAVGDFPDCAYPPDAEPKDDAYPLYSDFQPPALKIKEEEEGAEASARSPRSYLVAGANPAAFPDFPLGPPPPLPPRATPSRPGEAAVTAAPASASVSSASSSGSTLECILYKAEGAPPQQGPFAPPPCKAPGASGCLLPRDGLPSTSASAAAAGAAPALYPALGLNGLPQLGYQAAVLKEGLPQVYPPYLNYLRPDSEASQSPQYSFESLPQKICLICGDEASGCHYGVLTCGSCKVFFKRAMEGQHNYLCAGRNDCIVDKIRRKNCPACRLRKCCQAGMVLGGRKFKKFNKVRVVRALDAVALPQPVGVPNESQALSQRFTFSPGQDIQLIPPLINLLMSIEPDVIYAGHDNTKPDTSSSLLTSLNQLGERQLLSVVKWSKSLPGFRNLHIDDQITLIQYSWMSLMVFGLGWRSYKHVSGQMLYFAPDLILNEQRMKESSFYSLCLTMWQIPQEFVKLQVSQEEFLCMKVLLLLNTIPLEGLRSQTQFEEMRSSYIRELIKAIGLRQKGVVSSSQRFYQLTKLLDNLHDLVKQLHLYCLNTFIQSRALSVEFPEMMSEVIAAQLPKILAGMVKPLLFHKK
Briefly: Displacement of 3H-R5020 from progesterone receptor. The note with it: FIG. 7c.

For test [2], the system named is human progesterone receptor altered at the Tau-1 location. The experiment in a line: Co-transfection assay in CV-1 cells, progesterone receptor altered at Tau-1, antagonist activity. The format is cell-based. The essentials:
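CV-1 cells co-transfected with RSV-LTR-driven human PR (altered at Tau-1) and a hormone-responsive luciferase reporter; antagonism measured against a fixed agonist concentration. Luciferase in cell extracts read, triplicate points, potency from concentration-response; […].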

Test [3] has as its target T1, human progesterone receptor. Briefly: Progesterone receptor binding (displacement of 3H-progesterone, whole cell extract of transfected CV-1 cells). Further details: expressed in transfected cells; host or cells: CV-1 cells (calcium phosphate transfection), whole cell extract. The note with it: for Displacement of 3H-progesterone from its ligand binding site: 5 nM tritiated progesterone, 0-2.5×10^-5 M compound, 4° C., 24 hours.

Test [4] shares this target. Briefly: Co-transfection (cis-trans) assay in CV-1 cells, agonist and antagonist mode. The format is cell-based. The note with it: antagonist mode with 10^-8 M progesterone. Further details: expressed in transfected cells; host or cells: CV-1 cells (calcium phosphate transfection), whole cell extract. An excerpt: This assay is described in further detail in U.S. Pat. Nos. 4,981,784 and 5,071,773, which are incorporated herein by reference. The co-transfection assay provides a method for identifying functional ligands (either agonists which mimic, or antagonists which inhibit, the effect of hormones) for ligand-responsive receptor proteins.
The co-transfection assay provides a mechanism to evaluate ability of a compound to function as an agonist or antagonist of the activity modulated by an intracellular receptor. The co-transfection assay mimics an in vivo system in the laboratory. In the co-transfection assay, a cloned gene for an intracellular receptor is introduced by transfection (a procedure to induce cells to take up foreign genes) into a background cell substantially devoid of endogenous intracellular receptors. This introduced gene directs the recipient cells to make the intracellular receptor protein. A second gene is also introduced (co-transfected) into the same cells in conjunction with the intracellular receptor gene. This second gene functions as a reporter for the transcription-modulating activity of the target intracellular receptor. The reporter acts as a surrogate for the products normally expressed by a gene under control of the target receptor and its natural hormone.
A preferred reporter gene is one which expresses the firefly enzyme luciferase. The co-transfection assay can detect small molecule agonists or antagonists of target intracellular receptors. Exposing the cells to an agonist ligand increases reporter activity in the transfected cells that can be conveniently measured, reflecting ligand-dependent, intracellular receptor-mediated increases in reporter transcription. To detect antagonists, the co-transfection assay is carried out in the presence of a constant concentration of an agonist known to induce a defined reporter signal. Increasing concentrations of a test antagonist will decrease the reporter signal. The co-transfection assay is therefore useful to detect both agonists and antagonists of specific intracellular receptors. It determines not only whether a compound interacts with a particular intracellular receptor, but also whether this interaction mimics (agonizes) or blocks (antagonizes) the effects of the natural regulatory molecules on target gene expression.
Co-transfected cells are exposed to a medium to which is added the potential ligand that is being evaluated. If the candidate ligand diffuses into the cell and binds to the receptor and the resulting complex functions as an agonist, it binds to the co-transfected reporter gene and initiates transcription. When that gene is one that expresses, for example, luciferase, luciferase is produced which catalyzes a light-emitting reaction with its substrate luciferin. Thus, after cell lysis and the introduction of luciferin, the amount of light produced relative to the concentration of candidate ligand used in the assay provides a measure of the potency and efficacy of the compound tested. Antagonist activity is evaluated by adding the candidate ligand and a known agonist to the co-transfected cells.
The receptor cDNA was introduced in a mammalian expression vector under the control of the Rous Sarcoma virus LTR. […] A reporter vector was also transfected, containing a firefly luciferase gene under the control of the hormone-responsive promoter. […] The level of luciferase activity was then measured in cell extracts. Light emission is directly proportional to the effectiveness of the hormone-receptor complex in activating gene expression.
A total of three replicates per concentration point were tested for each compound, and the EC50 was calculated for each positive response. Both agonist and antagonist activity for each test compound was determined in parallel.

`CC#C[C@]1(O)CC[C@H]2[C@@H]3CCC4=CC(=O)CCC4=C3[C@@H](c3ccc(N(C)C)cc3)C[C@@]21C` [RU-486, reference compound]: the “Competition with 3H-R5020” value in test [1] was “competitive antagonist of R5020”. Further, the pIC50 in test [2] (read-out: Potency (IC50), CV-1 cells, concentration required to reduce the maximal response by 50%) was 10.00.

In the case of `C=C1CC[C@@H](Br)C(C)(C)[C@@H]1Cc1cc(OC)c(Br)cc1OC(C)=O` [SO-52], the “Displacement of 3H-progesterone from its ligand binding site” value in test [3] is “displaced ^3 H-progesterone from its ligand binding site in a concentration-dependent manner”. Moreover, the “Progesterone receptor agonist/antagonist activity” value in test [4] was “progesterone receptor antagonist activity”.

As for `C=C1CC[C@@H](Br)C(C)(C)[C@@H]1Cc1cc(OC)c(Br)cc1O` [SO-53, (3R)-cyclocymopol monomethyl ether], the “Competition with 3H-R5020” value in test [1] is “did not compete for this binding site”. In addition, the “Efficacy (% maximal response relative to RU-486), CV-1 cells” value in test [2] (antagonist activity, relative to RU-486) amounted to 85%. In addition, the pIC50 in test [2] (concentration required to reduce the maximal response by 50%, read-out: Potency (IC50), CV-1 cells) was 6.02. For the same compound, in test [3], the pKd was 6.35. Further, the “Displacement of 3H-progesterone from its ligand binding site” value in test [3] is on record as “displaced ^3 H-progesterone from its ligand binding site in a concentration-dependent manner”. The “Apparent Bmax of 3H-progesterone” value in test [3] (in the presence of compound, FIG. 8) was “significantly increased the apparent Bmax”. Besides, the “Progesterone receptor agonist/antagonist activity” value in test [4], in test [4] (listed as 3R diastereomer of cyclocymopol monomethyl ether) and in test [4] (listed as SO-9) was “progesterone receptor antagonist activity” throughout.
